The source of these data is patent publication US5973006A, “Fluoro-substituted benzoylpropionic acid derivatives” (Pharmacia & Upjohn S.p.A., priority 1995, dated 1999).

A short description of series [1]: Solubility in water at the indicated pH. The class given is physicochemical. The text has this: The following Table 2 reports the solubility in water at the indicated pH of a representative compound of the invention (R,S)-2-amino-4-(3',4'-difluorophenyl)-4-oxo-2-butanoic acid hydrochloride (PNU 156830) in comparison with the known reference compound of WO 95/03271: (R,S)-2-amino-4-(3',4'-dichlorophenyl)-4-oxo-butanoic acid hydrochloride (internal code: PNU 156561).

Series [2] deals with T1, kynurenine-3-hydroxylase (Rattus norvegicus, UniProt O88867). The experiment in a line: Kynurenine-3-hydroxylase assay in the rat brain. The class given is biochemical. The arrangement: from tissue. The settings on record: rat brain homogenate, 50 μM L-kynurenine, 60 min; read-out: Enzyme Inhibition (Brain) IC50. On the procedure:
Kynurenine-3-hydroxylase Assay in the Rat Brain
Brain was homogenized in ice-cold 0.32 M sucrose and centrifuged at 12000×g for 30 min at 4° C. The pellet was washed three times with 0.32 M sucrose by centrifugation and suspended in 0.14 M KCl in 20 mM K-phosphate buffer at pH 7 (1 g tissue in 2 ml buffer). The reaction mixture contained: 75 μl of suspended homogenate; 100 μl of substrate solution containing 50 mM K-phosphate buffer pH 7.5, 2 MM MgCl2, 0.4 mM NADPH, and 50 μM L-kynurenine (final concentration),and 25 μl of different concentrations of inhibitor solutions. The reaction was stopped by addition of 200 μl of 1 M HClO4 after 60 min incubation. L-3-hydroxykynurenine formed was quantified by HPLC with coulometric detection at a working voltage of +0.2 V. The column was a 10 cm C18 reversed phase (3 μm. The mobile phase consisted of 950 ml distilled water, 20 ml acetonitrile, 9 ml triethylamine, 5.9 ml phosphoric acid, 100 mg sodium EDTA and 1.5 g heptanesulfonic acid. The flow rate was 1 ml/min.

Series [3] addresses T1, kynurenine-3-hydroxylase. The experiment in a line: Kynurenine-3-hydroxylase assay in the rat liver (mitochondrial extract). The class given is biochemical. The arrangement: Rat liver mitochondrial extract was used as enzymatic preparation for this assay; from tissue; host or cells: rat liver mitochondrial extract. The following applies: 0.025 mM L-kynurenine, 37° C., 30 min, read-out: Enzyme Inhibition (Liver) IC50. On the procedure: Kynurenine-3-hydroxylase Assay in the Rat Liver
The assay for kynurenine 3-hydroxylase was based on the enzymatic synthesis of tritiated water during the hydroxylation reaction. Radiolabeled water was quantified following selective adsorption of the isotopic substrate and its metabolite with activated charcoal.
Rat liver mitochondrial extract was used as enzymatic preparation for this assay.
The assay for kynurenine 3-hydroxylase activity was carried out at 37° C. for a time of 30 min. The reaction mixture of a total volume of […] was constituted of […] of suspended extract, 100 mM Tris/Cl buffer pH 8.1, 10 mM EDTA, 100 mM KCl, 0.8 mM NADPH, 0.025 mM L-kynurenine, […] L-(3,5-^3 H)Kynurenine (10 Ci/mmol) and […] of different concentration of inhibitor solutions. After the incubation the reaction was terminated by the addition of 1 mL of 7.5% (w/v) activated charcoal, vortexed and centrifugated for 7 min.
A […] aliquot of supernatant was counted by scintillation spectroscopy in 5 ml of liquid scintillation.

Where a name gives a salt, the structure may show the parent alone.

T1 sequence (O88867 whole entry): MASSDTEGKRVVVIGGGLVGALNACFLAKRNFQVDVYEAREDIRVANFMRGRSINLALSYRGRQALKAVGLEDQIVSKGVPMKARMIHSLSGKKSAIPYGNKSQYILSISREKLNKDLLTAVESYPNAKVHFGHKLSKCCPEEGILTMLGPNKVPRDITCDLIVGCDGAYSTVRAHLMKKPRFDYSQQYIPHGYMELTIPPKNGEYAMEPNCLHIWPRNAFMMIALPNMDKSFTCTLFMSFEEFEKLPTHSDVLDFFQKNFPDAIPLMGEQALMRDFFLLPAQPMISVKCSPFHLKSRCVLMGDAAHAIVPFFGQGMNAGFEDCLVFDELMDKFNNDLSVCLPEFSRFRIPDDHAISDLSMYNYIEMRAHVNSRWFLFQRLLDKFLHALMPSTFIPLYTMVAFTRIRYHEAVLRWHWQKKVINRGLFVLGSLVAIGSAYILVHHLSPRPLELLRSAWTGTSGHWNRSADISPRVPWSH

The solubility is the dissolved amount per volume that the medium holds. A lower solubility goes with a poorly soluble substance. For `NC(CC(=O)c1ccc(Cl)c(Cl)c1)C(=O)O` (racemic) [PNU 156561, (R,S)-2-amino-4-(3',4'-dichlorophenyl)-4-oxo-butanoic acid hydrochloride, reference compound], the results for the solubility in series [1] (pH = 7.4) and in series [1] (pH = 8) were 0.2 mg/mL and 15 mg/mL, respectively.

The IC50 is the concentration that gives 50% inhibition. `NC(CC(=O)c1ccc(F)c(F)c1)C(=O)O` (racemic) [PNU 156830, (R,S)-2-amino-4-(3',4'-difluorophenyl)-4-oxo-2-butanoic acid hydrochloride]: the IC50 at kynurenine-3-hydroxylase [2] turned out to be 120 nM; at kynurenine-3-hydroxylase [3], 420 nM. Besides, the solubility worked out at 38 mg/mL in series [1] (pH = 3), 18 mg/mL in series [1] (pH = 7.4) and 36 mg/mL in series [1] (pH = 8).

`N[C@H](CC(=O)c1ccc(F)c(F)c1)C(=O)O` [PNU 158392, (R)-2-amino-4-(3',4'-difluorophenyl)-4-oxo-2-butanoic acid hydrochloride]: the IC50 at kynurenine-3-hydroxylase [3] is 10900 nM.

Regarding `N[C@@H](CC(=O)c1ccc(F)c(F)c1)C(=O)O` [PNU 158393, (S)-2-amino-4-(3',4'-difluorophenyl)-4-oxo-2-butanoic acid hydrochloride], the IC50 at kynurenine-3-hydroxylase [3] was 220 nM.
